Assay results as given in US11959079B2, “Methods for treating apolipoprotein E4-associated disorders” (priority 2009, dated 2024).
Entries after “also recorded” stand apart in the source; their conditions may differ.

Key:
Format in all cases: in vivo
[1] = test system: apoE4(Δ272-299)mE−/−Tau−/− mice; assay: Morris water maze, apoE4(Δ272-299)mE−/−Tau−/− mice
Method: (§1) Human apoE3-KI and apoE4-KI mice (Sullivan et al., 2004) were from Taconic. Tau−/− mice (Dawson et al., 2001) were backcrossed onto the mE−/− background, and mE−/−Tau−/− mice were crossed with apoE4(Δ272-299)mE−/− Tau+/+ mice. Studies were conducted on female mice at 1, 3, 6, 12, 16, or 21 months of age. All mice were on a C57BL/6 genetic background. Some apoE4-KI and apoE4(Δ272-299)mE−/−Tau+/+ mice received daily intraperitoneal injections of pentobarbital (20 mg/kg) or saline in their home cages for 21 days before the first day of Morris Water Maze (MWM) training and 1 h after daily training. Some apoE4(Δ272-299)mE−/−Tau−/− mice were given daily injections of picrotoxin (1 mg/kg) or saline intraperitoneally in their home cages for 3 days before MWM training and 30 min before daily training. Brain tissues were collected after a 1-min transcardial perfusion with 0.9% NaCl. One hemibrain from each mouse was fixed in 4% paraformaldehyde, sectioned (30 μm) with a microtome, and immunostained as described below. All experiments were performed in accordance with NIH and institutional guidelines.
The water maze pool (diameter, 122 cm) contained opaque water (22-23° C.) with a platform 10 cm in diameter. The platform was submerged 1.5 cm during hidden platform sessions (Harris et al., 2003; Raber et al., 1998; Roberson et al., 2007) and marked with black-and-white-striped mast (15 cm high) during cued training sessions. Mice were trained to locate the hidden platform (hidden days 1-5) and the cued platform (visible days 1-3) in two daily sessions (3.5 h apart), each consisting of two 60-s trials (hidden and cued training) with a 15-min intertrial interval. The platform location remained constant in the hidden platform sessions but was changed for each cued platform session. Entry points were changed semirandomly between trials. Twenty-four, 72, and 96 hours after the last hidden platform training, a 60-s probe trial (platform removed) was performed. […] Performance was monitored with an EthoVision video-tracking system (Noldus Information Technology).

[2] = test system: apoE4(Δ272-299)mE−/−Tau−/− mice; assay: Quantification of GAD67-positive hilar GABAergic interneurons, apoE4(Δ272-299)mE−/−Tau−/− mice; conditions: 12-month-old female mice, 1 mg/kg i.p., 3 days before and every day during MWM
Method: as §1, with “Brain tissues were collected after a 1-min transcardial perfusion with 0.9% NaCl. One hemibrain from each mouse was fixed in 4% paraformaldehyde, sectioned (30 μm) with a microtome, and immunostained as described below. All experiments were performed in accordance with NIH and institutional guidelines.” left out
(§2) Sliding microtome sections (30 μm) were immunostained with the following primary antibodies: polyclonal goat anti-human apoE (1:8000 for fluorescence; Calbiochem), rabbit anti-neuropeptide Y (1:8000 for […] (DAB); ImmunoStar), rat anti-somatostatin (1:100 for DAB; Chemicon), mouse anti-GAD67 (1:1000 for DAB; Chemicon), mouse anti-MAP2 (1:500 for fluorescence; Sigma), mouse anti-synaptophysin (1:500 for fluorescence; DakoCytomation), and phosphorylation-dependent monoclonal antibody AT8 (p-Ser202; 1:100 for DAB; Endogen). […]

[3] = test system: wildtype mice; assay: Morris water maze, wildtype mice; conditions: 12-month-old female wildtype mice, 1 mg/kg i.p., 3 days before and every day during MWM
Method: (§3) The water maze pool (diameter, 122 cm) contained opaque water (22-23° C.) with a platform 10 cm in diameter. The platform was submerged 1.5 cm during hidden platform sessions (Harris et al., 2003; Raber et al., 1998; Roberson et al., 2007) and marked with black-and-white-striped mast (15 cm high) during cued training sessions. Mice were trained to locate the hidden platform (hidden days 1-5) and the cued platform (visible days 1-3) in two daily sessions (3.5 h apart), each consisting of two 60-s trials (hidden and cued training) with a 15-min intertrial interval. The platform location remained constant in the hidden platform sessions but was changed for each cued platform session. Entry points were changed semirandomly between trials. Twenty-four, 72, and 96 hours after the last hidden platform training, a 60-s probe trial (platform removed) was performed. Entry points for the probe trial were in the west quadrant, and the target quadrant was in the southeast quadrant. Performance was monitored with an EthoVision video-tracking system (Noldus Information Technology).

[4] = test system: mE−/−Tau+/+ mice; assay: Morris water maze, mE−/−Tau+/+ mice; conditions: 12-month-old female mE−/−Tau+/+ mice, 1 mg/kg i.p., 3 days before and every day during MWM
Method: as §3

[5] = test system: female apoE4-KI mice; assay: Morris water maze, spatial learning and memory, apoE4-KI mice
Method: as §1, §3

[6] = test system: female apoE4-KI mice; assay: Quantification of GAD67-positive hilar GABAergic interneurons, apoE4-KI mice; conditions: 16-month-old female apoE4-KI mice; 20 mg/kg i.p.
Method: as §1, with “Brain tissues were collected after a 1-min transcardial perfusion with 0.9% NaCl. One hemibrain from each mouse was fixed in 4% paraformaldehyde, sectioned (30 μm) with a microtome, and immunostained as described below. All experiments were performed in accordance with NIH and institutional guidelines.” left out
as §2

[7] = test system: apoE4(Δ272-299)mE−/−Tau+/+ mice; assay: Morris water maze, apoE4(Δ272-299)mE−/−Tau+/+ mice; conditions: 12-month-old female mice, 20 mg/kg i.p., 21 days before and every day during MWM, vs saline
Method: as §1
The water maze pool (diameter, 122 cm) contained opaque water (22-23° C.) with a platform 10 cm in diameter. […] Performance was monitored with an EthoVision video-tracking system (Noldus Information Technology).

## picrotoxin
[1]; 1 mg/kg i.p., 3 days before and daily during MWM, vs saline-treated controls
  learning curve (hidden platform): resembled that of saline-treated apoE4(Δ272-299)mE−/−Tau+/+ mice
[1]; probe trial 24 h after last hidden session, 1 mg/kg i.p.
  target crossing test in probe trial: performed significantly worse
[1]; subthreshold dose 1 mg/kg i.p., 3 days before and daily during MWM
  rescue (prevention) of learning and memory deficits by tau removal: abolished
[2]
  number of hilar GABAergic interneurons (GAD67-positive): unaltered; also recorded: does not alter
[3]
  learning and memory performance: does not alter the learning and memory performance
[3]; listed as Picrotoxin
  learning and memory performance: did not alter
[4]
  learning and memory performance: does not alter the learning and memory performance
[4]; listed as Picrotoxin
  learning and memory performance: did not alter

## CCCC(C)C1(CC)C(=O)NC(=O)NC1=O (centres unmarked) [pentobarbital]
[5]; 16-month-old apoE4-KI mice, probe trial 96 h after last hidden session, 20 mg/kg i.p.
  memory deficits in probe trial (target quadrant and target cross tests): rescued memory deficits
[5]; 16-month-old female apoE4-KI mice, 20 mg/kg i.p. daily, 21 days before and during MWM
  learning and memory deficits: rescued the learning and memory deficits
[5]; 16-month-old female apoE4-KI mice, 20 mg/kg i.p., 21 days before and daily during MWM, vs saline
  learning curve (escape latency, hidden platform days): differed from that of saline-treated apoE4-KI mice (p<0.05, repeated-measures ANOVA) but resembled that of untreated apoE3-KI mice
[5]; 21-month-old female apoE4-KI mice, 20 mg/kg, 21 days before and daily during MWM, vs saline, 20 mg/kg
  learning deficit / learning curve (hidden platform): rescued; also recorded: differed from that of saline-treated apoE4-KI mice (p<0.05, repeated-measures ANOVA) but resembled that of saline-treated apoE3-KI mice
[6]
  number of hilar GABAergic interneurons: did not alter
[7]
  learning deficit (hidden platform sessions): rescued the learning and memory deficits; also recorded: rescued the learning deficit; also recorded: learned better than saline-treated apoE4(Δ272-299)mE−/−Tau+/+ mice (p<0.01)
